Here are results for one compound from patent US6689936B1, “Method for evaluating a compound for its effect on skin” (The General Hospital Corp., priority 1997, dated 2004).

The structures appear in SMILES notation.

In assay [1] the test system is human VEGF promoter driven GFP reporter. The assay is described as follows: Induction of epidermal GFP by topical TPA in VEGF-GFP transgenic mouse skin (fluorescence microscopy of skin biopsy sections). The assay is classed as in vivo. The conditions noted are these: single dose of 5 μg TPA in acetone, topical on back skin, biopsy after 12 hours; acetone alone showed only basal levels. The procedure:
Tissue preparation for GFP detection and epimicroscopic observation solutions washed out or diffused GFP-derived fluorescence from the site of GFP expression. Ultimately, a freshly dissected, unfixed tissue block, was directly cut into 12 μm thick frozen sections using a cryostat. Epifluorescent microscopic observation was performed immediately after sectioning, without mounting medium or extended slide storage, using FITC/TRITC double excitation and an emission filter Chroma, *VT) to distinguish the GFP-derived fluorescent signal from tissue autofluorescence.
For induction of VEGF mRNA by TPA, a single dose of 5 μg TPA in acetone was topically applied to back skin of transgenic mice and skin biopsy samples were collected after 12 hours.
Induction of epidermal GFP by phorbolester application was also examined. […] This signal seemed to localize to the basoplateral surface of the epithelium rather than in either the keratinocyt cytosol or nucleus.

Assay [2] has the same test system. As to the kind of experiment: Direct confocal detection of GFP induction in intact skin of living hairless VEGF-GFP transgenic mice. The assay is classed as in vivo. The conditions noted are these: TPA applied to back skin of anaesthetized hairless VEGF-GFP mouse, after 12hrs, compared with acetone on the same individual. On the procedure: To examine whole intact skin on living transgenic mouse with confocal microscope, hairless VEGF-GFP transgenic mice were anaesthetized with avertin by intraperitoneal injection. They were placed directly on the petri dish with dorsal position. TPA or acetone treatment was performed on the back skin same as described above marking treated area with an ink to ease the orientation of the skin. Sections or intact skin of the mice were analyzed using Leica DM IRBE inverted microscope and Leica TCS NT4D confocal microscope system with band pass filter 530/30 nm, detecting emission at wavelengths between 515-545 nm.
To test whether the induction of GFP is directly detected in the skin of a living VEGF-GFP transgenic mouse, acetone or TPA applied skin of the transgenic hairless mouse (same individual) was directly examined by confocal imaging under anaesthetized condition. […] X-Z confocal imaging confirmed that this signal was within the basal layer of the epidermis.

The next assay has as its system VEGF. The conditions noted are these: topical application of phorbolesters; cited from earlier work.

On to `CCCCCCCCCCCCCC(=O)O[C@@H]1[C@@H](C)[C@@]2(O)[C@@H](C=C(CO)C[C@]3(O)C(=O)C(C)=C[C@@H]23)[C@H]2C(C)(C)[C@]12OC(C)=O` [TPA], for which, in assay [1], the “GFP fluorescent signal in epidermis of transgenic skin” value is given as “Accumulation of fluorescent signal was observed”. Also, the “GFP fluorescence positive area in living epidermis (confocal imaging)” value in assay [2] was “increase of fluorescence positive area”. Besides, the “expression of VEGF in epidermal keratinocytes” value with VEGF is listed as “up-regulated”.
